Results on six compounds are retold here after US20060241038A1, “Therapeutic agent for Abeta related disorders” (Eisai Co., Ltd., priority 2005, published 2006).

Entries after “also recorded” stand apart in the source; their conditions may differ.

Series [1] deals with Aβ fragments in rat fetal brain-derived nerve cell culture medium. Nature of the series: MALDI-TOF/MS analysis of Aβ in rat fetal brain-derived nerve cell culture medium. The format is cell-based. Conditions: 3 days culture with various concentrations of test compound; normalized to internal standard Aβ12-28. The procedure:
In the same manner as shown in Example 3 above, brain cortex-derived nerve cells were prepared from Wistar rats at 18 days of embryonic age. The nerve cell suspension was diluted with a medium and seeded onto 10 cm polystyrene culture dishes pre-coated with poly-D-lysine (BIOCOAT® cell environments Poly-D-lysine cell culture dish, Becton Dickinson Labware) in a volume of 15 ml/dish so as to give an initial cell density of 3.5×10^5 cells/cm^2. After the seeded cells were cultured for 1 day in an incubator with 5% CO2, 95% air at 37° C., the medium was entirely replaced by fresh Neurobasal/B27/2ME, followed by culturing for an additional 3 days.
(§1) At 4 days after initiation of culturing, the test compounds synthesized in the preceding Examples, i.e., Compound A, Compound B (CAS#501907-79-5) or Compound C (CAS#670250-40-5) were added as follows. The medium was entirely removed and replaced by Neurobasal/B27/2ME free from 2-ME (i.e., Neurobasal/B27) in a volume of 11 ml/dish. The test compounds (Compounds A, B and C) in DMSO were diluted with Neurobasal/B27 to 100-fold of their final concentration and added in a volume of 110 μl/dish, followed by sufficient mixing. The final DMSO concentration was kept at 1% or below. The control group received DMSO alone.
(§2) After addition of the test compounds, the cells were cultured for 3 days and the whole volume of the medium was collected from each dish. The resulting medium was provided as a MALDI-TOF/MS sample.
Each sampled culture supernatant was collected in a 15 mL centrifuge tube and supplemented with 400 μL of a 25-fold concentrated solution of protease inhibitor cocktail Complete (Roche Diagnostics GmbH), followed by centrifugation at 4° C. at 3,000 rotations/minute for 5 minutes to sediment cell fragments. The resulting supernatant was transferred to another 15 mL centrifuge tube and supplemented with synthetic Aβ12-28 (Bachem) as an internal standard at a final concentration of 2 nM, followed by addition of 5 μg anti-Aβ monoclonal antibody (clone name: 4G8, Signet Laboratories, Inc). Subsequently, 5 μL of Protein G plus Protein A Agarose (Oncogene Research Products) was added after being blocked at 4° C. with 2% BSA and washed with TBS buffer. Further, 3-[(3-cholamidopropyl)dimethylammonio]-1-propanesulfonate (CHAPS; SIGMA) was added to each tube at a final concentration of 1%, followed by mixing at 4° C. for 4 to 8 hours.
The Protein G plus Protein A Agarose holding the immunoprecipitated Aβ fragments adsorbed thereto was collected from each tube by centrifugation at 4° C. at 3,000 rotations/minute for 5 minutes and transferred to a 1.5 mL microtube. The Protein G plus Protein A Agarose was washed twice with 500 μL of 140 mM NaCl, 0.1% N-Octyl Glucoside (NOG; Loche Diagnostics GmbH), 10 mM Tris-HCl, pH 8, once with 500 μL of Tris-HCl, 10 mM, pH 8, and then once with 500 μL of ion exchanged water. After washing with ion exchanged water, as much fluid as possible was removed from each tube and Aβs were eluted with 5 μL of 0.2% NOG, 2.4% trifluoroacetic acid (TFA; PIERCE) and 48.7% acetonitrile (HPLC grade, Wako Pure Chemical Industries, Ltd.). Independently of this, α-cyano-4-hydroxy-cinnamic acid (CHCA; BRUKER DALTONICS) was dissolved in 0.2% NOG, 0.1% TFA and 33% acetonitrile at a saturating concentration and supplemented with human insulin (Peptide Institute, Inc.) and angiotensin III (Peptide Institute, Inc.) as mass standards at fmal concentrations of 167 nM and 56 nM, respectively, for use as a matrix solution. Each Aβ eluate (0.5 μL) and the matrix solution (0.5 μL) were spotted at the same position on a sample plate for mass spectrometry and air-dried at room temperature, followed by analysis with a mass spectrometer Voyager DE (Applied Biosystems). All mass data detected were corrected for the mass of human insulin and angiotensin III (5807.6 and 931.1, respectively). […]

The next series relates to Aβ40. Put plainly: ELISA quantification of Aβ40 in rat fetal brain-derived nerve cell culture medium. The format is cell-based. Conditions: 3 days culture; effect stated as concentration-dependent (FIGS. 7-1 to 7-3). As for the experimental part:
as §1, §2
(§3) A part of each medium collected in Example 7(3) aforementioned was used as an ELISA sample. Each sample was not diluted for Aβ42 measurement, while it was diluted 5-fold for Aβ40 measurement with a diluent attached to an ELISA kit before being subjected to ELISA.
(§4) Aβ ELISA was performed using a Human Amyloid beta (1-42) Assay Kit (#17711, IBL Co., Ltd.) and a Human Amyloid beta (1-40) Assay Kit (#17713, IBL Co., Ltd.) in accordance with the kit's recommended protocol (the procedures described in the attached document), provided that a calibration curve for each Aβ was prepared using beta-amyloid peptide 1-42 (rat) or beta-amyloid peptide 1-40 (rat) (Calbiochem. #171596[Aβ4 2] or #171593[Aβ4 0]). The results were expressed as percentages (% of Control) relative to the Aβ concentration in the medium from the control group (untreated group, Control).
(In an ELISA, binding on a coated surface is turned into a signal by an enzyme label.)

Another series has as its system Aβ42. Nature of the series: ELISA quantification of Aβ42 in rat fetal brain-derived nerve cell culture medium. The series is classed as cell-based. Conditions: 3 days culture; effect stated as concentration-dependent (FIGS. 7-1 to 7-3). The procedure: as §1, §2, §3, §4
Another series deals with Aβ42 production. Conditions: reported in 2001 (refs 13, 14); cited from earlier work.
Series [2] can be described thus: Circular dichroism (CD) analysis of each Aβ (secondary structure). The series is classed as physicochemical. The settings on record: each Aβ alone, 37° C., until 5 days. The procedure:
The solution was then dispensed in 10 to 30 μL aliquots into 500 μL polypropylene microtubes and stored at −80° C. until use.
The Aβ solutions in HFIP were evaporated using a centrifugal evaporator (Tomy Seiko Co., Ltd., CC-180 and ST-10) to remove HFIP and then dissolved in a solution of 10 mM HEPES containing 0.9% NaCl. Each of the resulting Aβ solution was incubated at 37° C. and measured for their CD at different time points.
The Aβ-containing solutions were injected into washed quartz cells with an optical path length of 1 or 2 mm and measured for their CD. Until measurement, the quartz cells were allowed to stand at 37° C., 100% humidity.
In general terms: CD spectra are sensitive to the conformation of chiral molecules.

Series [3] concerns the target T1, Aβ1-42 (Homo sapiens, UniProt P05067).
T1 construct: purchased Peptide Institute, Inc. 4349-v
Nature of the series: CD measurement on a 1:3 mixture of Aβ1-42 and each Aβ (β-sheet structure formation in Aβ1-42). The settings on record: 5 μM Aβ1-42 mixed with 15 μM of the Aβ (1:3). The series is classed as biochemical. As for the experimental part:
The solution was then dispensed in 10 to 30 μL aliquots into 500 μL polypropylene microtubes and stored at −80° C. until use. The Aβ solutions in HFIP were evaporated using a centrifugal evaporator (Tomy Seiko Co., Ltd., CC-180 and ST-10) to remove HFIP and then dissolved in a solution of 10 mM HEPES containing 0.9% NaCl. Each of the resulting Aβ solution was incubated at 37° C. and measured for their CD at different time points. […] The Aβ-containing solutions were injected into washed quartz cells with an optical path length of 1 or 2 mm and measured for their CD. Until measurement, the quartz cells were allowed to stand at 37° C., 100% humidity.

Series [4] is described as follows: Thioflavin T (ThT) analysis for aggregation ability of each Aβ. The series is classed as physicochemical. Conditions: each Aβ alone, in 10 mM HEPES containing 0.9% NaCl, 37° C.; 10 μM ThT. The procedure:
(§5) After addition of ThT (SIGMA) at a final concentration of 10 μM, each sample was transferred to a 96-well black plate (Corning) and stirred for 10 seconds, followed by measuring the fluorescence intensity for each sample. Using a fluorospectrometer (LJL Biosystems), the fluorescence intensity at a wavelength of 490 nm was measured with an excitation light of 450 nm wavelength.

Series [5] has as its target T1, Aβ1-42. Nature of the series: ThT fluorescence of 1:3 mixtures of Aβ1-42 and each Aβ. The format is biochemical. Conditions: Aβ1-42 mixed with the Aβ at a ratio of 1:3. As for the experimental part:
as §5

`COc1cc(/C=C/C(=O)NCc2cccc(-c3ccccc3)c2)ccc1-n1cnc(C)c1` [Compound A, (E)-N-biphenyl-3-ylmethyl-3-[3-methoxy-4-(4-methylimidazol-1-yl)phenyl]acrylamide]: in series [1], the “Aβ1-37 or Aβ11-37 production (MALDI-TOF/MS)” value (shortened to “Aβ1-37 or Aβ11-37 production”) was “enhanced in a manner dependent on the concentration of Compound A”; the “Aβ1-38 or Aβ11-38 production (MALDI-TOF/MS)” value is recorded as “enhanced in a manner dependent on the concentration of Compound A”; the “Aβ1-40 or Aβ11-40 production (MALDI-TOF/MS)” value (“Aβ1-40 or Aβ11-40 production” below) is listed as “inhibited in a manner dependent on the concentration of Compound A”; the “Aβ1-42 or Aβ11-42 (peak intensity, MALDI-TOF/MS)” value was “no detectable change”. Moreover, in the series with Aβ40, the “Aβ40 production (ELISA, % of Control)” value is “inhibited”. The “Aβ42 production (ELISA, % of Control)” value in the series with Aβ42 is reported as “inhibited”.
For the compound `N#Cc1ccc(NC(=O)NC(=N)Nc2ccc(Cl)cc2)cc1` [Compound B, N-{[(4-chlorophenyl)amino]iminomethyl}-N′-(4-cyanophenyl)urea], in series [1], the “Aβ1-37 or Aβ11-37 production” value was “enhanced in a manner dependent on the concentration of Compound B”; the “Aβ1-38 or Aβ11-38 production (MALDI-TOF/MS)” value is on record as “enhanced in a manner dependent on the concentration of Compound B”; the “Aβ1-40 or Aβ11-40 production” value is reported as “inhibited in a manner dependent on the concentration of Compound B”; the “Aβ1-42 or Aβ11-42 (peak intensity, MALDI-TOF/MS)” value is reported as “no detectable change”. For the same compound, the “Aβ40 production (ELISA, % of Control)” value with Aβ40 is reported as “inhibited”. Besides, the “Aβ42 production (ELISA, % of Control)” value in the series on Aβ42 is “inhibited”.
For `CNC(=O)n1ccc2cc(Oc3ccnc(NC(=O)N[C@H](CO)C(=O)N4CCCCC4)c3)ccc21` [Compound C, 5-{2-{3-[(1R)-1-hydroxymethyl-2-oxo-2-piperidin-1-ylethyl]ureido}pyridin-4-yloxy}-1H-indole-1-carboxylic acid methylamide], in series [1], the “Aβ1-37 or Aβ11-37 production” value was “enhanced in a manner dependent on the concentration of Compound C”; the “Aβ1-39 or Aβ11-39 production (MALDI-TOF/MS)” value is recorded as “enhanced in a manner dependent on the concentration of Compound C”; the “Aβ1-40 or Aβ11-40 production” value was “tended to be inhibited”; the “Aβ1-42 or Aβ11-42 (peak intensity, MALDI-TOF/MS)” value is recorded as “no detectable change”. Besides, the “Aβ40 production (ELISA, % of Control)” value with Aβ40 is listed as “inhibited”. For the same compound, the “Aβ42 production (ELISA, % of Control)” value in the series with Aβ42 was “inhibited”.
For `CC(C)Cc1ccc(C(C)C(=O)O)cc1` (stereo not shown) [ibuprofen], the “effect on Aβ42 production” value in the series with Aβ42 production is “selectively inhibit Aβ42 production”.
As to “Aβ1-40: human-type Aβ1-40 (Peptide Institute, Inc., Prod. # 4307-v); amyloid β peptide”, the “likelihood of forming a β-sheet structure (CD), compared with Aβ1-42” value in series [2] is listed as “less likely to form a β-sheet structure than Aβ1-42”. For the same compound, the “effect on β-sheet structure formation in Aβ1-42 (CD)” value in the series with Aβ1-42 [3] is reported as “weaker than that of Aβ1-37 or Aβ1-38”. In the series with Aβ1-42 [3] (37° C., Aβ1-42+buffer showed β-sheet from 1 day), the “time after mixing with Aβ1-42 at which a CD spectrum indicative of β-sheet structure was detected” value is 2 days. In addition, the “fluorescence intensity of ThT (content of β-sheet structure) with incubation time” value in series [4] was “no increase in the fluorescence intensity”. Also, in the series with Aβ1-42 [5], the “increase in ThT fluorescence intensity (β-sheet structure formation) of Aβ1-42 compared to Aβ1-42 alone” value is recorded as “the formation of β-sheet structure was inhibited; also recorded: the increase in the fluorescence intensity was inhibited”.
As to “Aβ1-42: human-type Aβ1-42 (Peptide Institute, Inc., Prod. # 4349-v); amyloid β peptide”, the “fluorescence intensity of ThT (content of β-sheet structure) with incubation time” value in series [4] is “increased with increasing incubation time”.
